Where two headings read alike, the source gives them in different places. Values belong to the molecule of their own block, whether it stands above or below them.
Assays:
CYP2A6 [1] = target: T1, CYP2A6 (Homo sapiens, UniProt P11509); test: Inhibition of CYP2A6
T1 sequence (P11509 1-494): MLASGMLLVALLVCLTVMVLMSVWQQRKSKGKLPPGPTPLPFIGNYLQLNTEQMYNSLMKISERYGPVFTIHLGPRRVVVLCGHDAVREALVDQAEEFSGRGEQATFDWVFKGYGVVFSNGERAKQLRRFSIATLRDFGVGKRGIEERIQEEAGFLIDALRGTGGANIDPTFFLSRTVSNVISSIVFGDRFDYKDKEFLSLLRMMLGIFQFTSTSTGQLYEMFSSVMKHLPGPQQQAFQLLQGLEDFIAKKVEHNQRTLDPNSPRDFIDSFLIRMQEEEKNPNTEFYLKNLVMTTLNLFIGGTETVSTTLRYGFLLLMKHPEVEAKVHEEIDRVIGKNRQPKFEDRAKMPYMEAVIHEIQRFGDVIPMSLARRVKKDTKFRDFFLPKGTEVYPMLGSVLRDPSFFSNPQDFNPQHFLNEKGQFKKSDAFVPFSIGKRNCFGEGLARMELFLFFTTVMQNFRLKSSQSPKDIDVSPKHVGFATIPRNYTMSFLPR

CYP2C19 [2] = target: T2, CYP2C19 (Homo sapiens, UniProt P33261)
expressed CYP2C19 [3] = target: T3, expressed CYP2C19 (Homo sapiens, UniProt P33261); settings: read-out: Ki values, expressed CYP2C19; expressed 2C19 52 pmol/ml, S-mephenytoin 10–75 μM, mean ± SE, competitive model
expressed CYP2B6 = target: T4, expressed CYP2B6 (Homo sapiens, UniProt P20813); test: Inhibition of expressed CYP2B6; assay type: biochemical; settings: read-out: Ki values, expressed CYP2B6; expressed CYP2B6 52 pmol/ml, efavirenz 10–75 μM, mean ± SE, competitive model
T4 sequence (P20813 1-491): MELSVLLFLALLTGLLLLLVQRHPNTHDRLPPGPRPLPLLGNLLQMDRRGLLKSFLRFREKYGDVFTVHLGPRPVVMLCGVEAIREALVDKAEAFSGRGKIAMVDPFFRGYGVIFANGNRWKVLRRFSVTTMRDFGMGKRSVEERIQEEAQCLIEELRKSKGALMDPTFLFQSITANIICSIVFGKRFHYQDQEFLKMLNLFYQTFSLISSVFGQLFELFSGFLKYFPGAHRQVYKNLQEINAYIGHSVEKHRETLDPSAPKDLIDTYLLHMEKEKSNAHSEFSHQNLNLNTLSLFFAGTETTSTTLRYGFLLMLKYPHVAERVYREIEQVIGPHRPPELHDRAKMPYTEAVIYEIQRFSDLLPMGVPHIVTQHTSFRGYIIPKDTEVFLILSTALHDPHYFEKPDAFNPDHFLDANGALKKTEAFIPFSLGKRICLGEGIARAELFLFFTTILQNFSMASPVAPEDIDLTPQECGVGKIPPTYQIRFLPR

[4] = cited from earlier work
CYP2B6 [5] = target: T5, CYP2B6 (Homo sapiens, UniProt P20813); test: Inhibition of CYP2B6
T5 sequence (P20813 1-491): T4 sequence (P20813 1-491)

CYP isoforms = test: Assessment of time-dependent inactivation; assay type: biochemical, human; settings: preincubation 0 and 15 min with HLM and cofactors, data not shown
[6] = cited from earlier work; remark: listed apart in the source
CYP2A6 [7] = target: T1, CYP2A6; test: in vitro; settings: microsomes, pH 7.4
CYP2C8 = test: Inhibition of CYP2C8; assay type: biochemical; settings: human, human liver microsomes, pH 7.4, probe amodiaquine 5 μM (desethylation)
expressed CYP2C19 [8] = target: T3, expressed CYP2C19; test: biochemical
[9] = rat liver tissues; cited from earlier work
CYP2B6 [10] = target: T5, CYP2B6; test: in vitro; settings: microsomes, pH 7.4
CYP2C19 [11] = target: T2, CYP2C19; test: biochemical
CYP2A6 [12] = target: T1, CYP2A6; test: Prediction of in vivo AUC change of CYP2A6 substrates from in vitro Ki; settings: for AUCI/AUCUI ratio expected in vivo, CYP2A6, free letrozole: unbound letrozole (fu 0.2–0.4)
expressed CYP2A6 = target: T6, expressed CYP2A6 (Homo sapiens, UniProt P11509); test: Inhibition of expressed CYP2A6; assay type: biochemical
T6 sequence (P11509 1-494): T1 sequence (P11509 1-494)

CYP2C9 = CYP2C9 (Homo sapiens, UniProt P11712); test: in vitro; settings: microsomes, pH 7.4
[13] = cited from earlier work; remark: listed apart in the source
CYP2D6 = CYP2D6 (Homo sapiens, UniProt P10635); test: in vitro; settings: microsomes, pH 7.4
CYP3A = test: Inhibition of CYP3A; assay type: biochemical; settings: human, human liver microsomes, pH 7.4, probe midazolam 10 μM (1′-hydroxylation)
2C9 = settings: read-out: Ki for inhibition of CYP2C9; in vitro; cited from earlier work
CYP1A2 = settings: read-out: Ki for inhibition of CYP1A2; in vitro; cited from earlier work

T2 sequence (P33261 whole entry): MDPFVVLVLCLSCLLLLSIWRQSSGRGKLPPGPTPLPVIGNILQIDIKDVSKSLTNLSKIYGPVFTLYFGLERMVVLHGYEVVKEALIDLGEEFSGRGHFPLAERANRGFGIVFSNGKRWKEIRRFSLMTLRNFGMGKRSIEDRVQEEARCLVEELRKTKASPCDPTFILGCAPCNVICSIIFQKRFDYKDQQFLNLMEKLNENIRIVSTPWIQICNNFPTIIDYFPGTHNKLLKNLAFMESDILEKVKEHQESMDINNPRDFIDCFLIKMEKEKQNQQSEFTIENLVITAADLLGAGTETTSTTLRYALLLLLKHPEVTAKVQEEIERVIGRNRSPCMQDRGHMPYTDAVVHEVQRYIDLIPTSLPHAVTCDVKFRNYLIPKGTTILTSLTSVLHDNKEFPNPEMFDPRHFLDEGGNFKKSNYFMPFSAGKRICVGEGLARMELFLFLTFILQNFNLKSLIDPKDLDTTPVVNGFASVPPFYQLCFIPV
T3 sequence (P33261 whole entry): as above
CYP2C9, sequence (P11712 whole entry): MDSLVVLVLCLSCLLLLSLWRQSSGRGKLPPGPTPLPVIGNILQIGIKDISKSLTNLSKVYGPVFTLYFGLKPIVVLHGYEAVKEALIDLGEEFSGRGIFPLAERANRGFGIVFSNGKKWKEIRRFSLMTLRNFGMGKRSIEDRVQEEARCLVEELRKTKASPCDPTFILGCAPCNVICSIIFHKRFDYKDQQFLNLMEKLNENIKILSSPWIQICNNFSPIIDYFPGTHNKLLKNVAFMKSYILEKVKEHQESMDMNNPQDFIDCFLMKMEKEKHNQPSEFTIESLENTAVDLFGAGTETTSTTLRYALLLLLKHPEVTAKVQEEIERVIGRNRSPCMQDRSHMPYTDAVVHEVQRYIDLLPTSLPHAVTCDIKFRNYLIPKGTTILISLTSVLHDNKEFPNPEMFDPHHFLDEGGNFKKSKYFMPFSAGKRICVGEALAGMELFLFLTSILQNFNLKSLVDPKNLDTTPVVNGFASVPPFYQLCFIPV
CYP2D6, sequence (P10635 whole entry): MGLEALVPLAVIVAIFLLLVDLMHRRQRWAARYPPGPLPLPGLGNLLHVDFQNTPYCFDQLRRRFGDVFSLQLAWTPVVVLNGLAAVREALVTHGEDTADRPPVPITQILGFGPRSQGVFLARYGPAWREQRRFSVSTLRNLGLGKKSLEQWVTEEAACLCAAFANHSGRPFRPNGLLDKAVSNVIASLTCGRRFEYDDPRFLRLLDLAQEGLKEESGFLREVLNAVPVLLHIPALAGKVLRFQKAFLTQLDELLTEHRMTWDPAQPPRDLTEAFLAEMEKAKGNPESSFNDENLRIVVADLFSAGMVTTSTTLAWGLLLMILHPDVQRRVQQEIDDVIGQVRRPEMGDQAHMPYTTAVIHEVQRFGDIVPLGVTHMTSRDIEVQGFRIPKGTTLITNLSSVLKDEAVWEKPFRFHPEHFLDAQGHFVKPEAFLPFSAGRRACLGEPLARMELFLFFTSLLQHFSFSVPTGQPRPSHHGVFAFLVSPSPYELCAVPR

Structure (SMILES): N#Cc1ccc(C(O)c2ccc(C#N)cc2)cc1 [letrozole metabolite, 4,4′-methanol-bisbenzonitrile]
Effect on CYP2A6 activity (CYP2A6 [1]; HLMs, 0–100 μM): lack of any effect
Mode of inhibition of CYP2C19 (CYP2C19 [2]; Dixon plots and enzyme inhibition models, HLMs and expressed CYP2C19): competitive
Ki (CYP2C19 [2]; read-out: Ki values, CYP2C19, HLMs, HLMs (SD-101) 0.5 mg/ml, S-mephenytoin 10–75 μM, mean ± SE, competitive model): 19.5 ± 0.5 µM
Ki (expressed CYP2C19 [3]): 4.5 ± 0.7 µM
Ki (expressed CYP2B6): 40.4 ± 14.6 µM
Fraction of letrozole dose accounted for by the metabolite ([4]; human): over 60%
Mode of inhibition of CYP2B6 (CYP2B6 [5]; Dixon plots and enzyme inhibition models, HLMs and expressed CYP2B6): competitive
Ki (CYP2B6 [5]; read-out: Ki values, CYP2B6, HLMs, HLMs (HL-091499) 0.5 mg/ml, efavirenz 10–75 μM, mean ± SE, competitive model): 12.9 ± 3.8 µM

IC50 (CYP2A6 [1]): 5.9 µM
Mode of inhibition of CYP2A6 (CYP2A6 [1]; Dixon plots and enzyme inhibition models, HLMs and expressed CYP2A6): competitive
Fold Ki for CYP2C19 above therapeutic plasma concentrations of letrozole (CYP2C19 [2]; human): over 40 fold
Mode of inhibition of CYP2C19 (CYP2C19 [2]; microsomes): competitive
Ki at 15 min (CYP2A6 [7]): 4.6 ± 0.1 µM
inhibition at 15 min, 100 μM (CYP2C8): < 20%
IC50 (expressed CYP2C19 [8]): 62.9 µM
Ki (expressed CYP2C19 [8]; Ki values, expressed CYP2C19, expressed 2C19 52 pmol/ml, S-mephenytoin 10–75 μM, mean ± SE, competitive model): 33.3 µM
inhibition at 10 min, 100 μM (CYP2B6 [10]): < 20%
IC50 (CYP2C19 [11]): 24.8 µM
Ki (CYP2C19 [11]): 42.2 ± 3.8 µM
AUCI/AUCUI ratio expected in vivo, CYP2A6, total letrozole (CYP2A6 [12]; letrozole plasma concentration 0.5–1 μM (bound + unbound), Ki from HLMs): 1.11–1.22
Predicted increase in exposure of CYP2A6 substrates (maximum) (CYP2A6 [12]; predicted from in vitro Ki): 11–22%
AUCI/AUCUI ratio expected in vivo, CYP2A6, free letrozole (CYP2A6 [12]; Ki from HLMs): close to unity
AUCI/AUCUI ratio expected in vivo, CYP2A6, free letrozole (CYP2A6 [12]; Ki from HLMs, listed as Letrozole): 1.04–1.09
IC50 (expressed CYP2A6): 12.5 µM
Ki (expressed CYP2A6): 5 ± 2.4 µM
inhibition at 60 min, 100 μM (CYP2C9): < 20%
inhibition at 30 min, 100 μM (CYP2D6): < 20%
inhibition at 5 min, 100 μM (CYP3A): < 20%
Structure (SMILES): N#Cc1ccc(C(c2ccc(C#N)cc2)n2cncn2)cc1 [letrozole, 4,4′-[(1H-1,2,4-triazol-1-yl)methylene] bis-benzonitrile]
Time dependence of inhibition of CYPs (CYP isoforms): not time dependent
Plasma protein binding [6]: 60%
Absolute bioavailability [4]: 99.9%
Exposure at steady state higher than at a single dose [4]: 28%
Radioactivity in plasma accounted by unchanged drug ([4]; following 14C-labeled letrozole (2.5 mg)): Approximately 82%
Cmax ([4]; read-out: Average maximum plasma concentration (Cmax) at steady state, women with breast cancer, 2.5 mg/day): ~500 nM
Liver tissue concentration relative to plasma [9]: > sevenfold
Effect on the pharmacokinetics of known CYP substrates including warfarin, diazepam, and tamoxifen [13]: lack of letrozole's effect

Structure (SMILES): CC(C)(C#N)c1cc(Cn2cncn2)cc(C(C)(C)C#N)c1 [anastrozole]
Ki (2C9): 8 to 10 µM
Ki (CYP1A2): 8 to 10 µM

Reference: PMC2774495 (Cancer chemotherapy and pharmacology, 2009)
